The results in this text go back to patent US8080563B2, “Bicyclic heteroaryl inhibitors of PDE4” (Kalypsys, priority 2006, dated 2011).

One test has as its target T1, PDE4B (Homo sapiens, UniProt Q07343).
T1 construct: hex-histidine (His6) (N); made in house
Kind of test: Coupled PDE/AK bioluminescent assay of PDE inhibition. The class given is biochemical. The conditions noted are these: PDE4B catalytic domain. The text has this:
Phosphodiesterases regulate the activity of the second messenger cyclic adenosine monophosphate (cAMP) by hydrolyzing cAMP to adenosine monophosphate (AMP). We developed a novel coupled PDE/AK bioluminescent high-throughput assay to measure the activity of phosphodiesterases. In the PDE/AK assay, the AMP produced from the hydrolysis of cAMP by phosphodiesterase is converted to adenosine diphosphate (ADP) by the phosphotransferase activity of adenylate kinase (also known as ADK or myokinase). Adenylate kinase will catalyze the conversion of 1 mole of AMP and 1 mole of ATP into 2 moles of ADP. Thus the conversion of AMP to ADP will result in the subsequent loss of ATP. The decrease in ATP concentration can be monitored as light output using luciferase in a reaction that requires ATP to produce light. The PDE/AK assay uses luciferase, which catalyzes the production of light from ATP present in the reaction mix. The amount of emitted light is inversely proportional to the level of AMP present in the reaction. Test compounds are incubated with the phosphodiesterases and phosphodiesterase inhibitors will decrease the rate of cAMP hydrolysis and decrease the subsequent production of AMP. Thus phosphodiesterase inhibitors will decrease the conversion of ATP to ADP and result in the greatest emission of light.
Compounds may be screened for functional potency in in vitro biochemical assays for their ability to inhibit the activity of phosphodiesterase (PDE) enzymes. A novel coupled PDE/AK assay was utilized to measure the inhibitory activity of compounds on PDE isoforms. The catalytic domain of PDE4B was fused to an amino-terminus hex-histidine affinity tag and purified. PDE4B enzyme was incubated with compounds for 10 minutes. Cyclic AMP substrate, ATP and adenylate kinase were then added to the PDE enzyme mix and incubated for 45 minutes at room temperature. A commercial ATP detection assay, Perkin Elmer's easyLite ATP detection reagent, was then added to measure the relative amount of ATP present in the reaction. After […], the luminescent signal was quantitated with either the Perkin Elmer Viewlux or Molecular Devices Acquest or Analyst. Roflumilast and Rolipram are the positive controls used in the assay.

Test [1] concerns Lacrimal Gland Inflammation-Induced Dry Eye in Rabbits. Kind of test: Lacrimal gland inflammation-induced dry eye in rabbits (corneal staining, tear breakup time). The conditions noted are these: topical ocular BID; for Activity at Percent Concentration Tested 1 × 10^−2: 1 × 10^−2 percent concentration; for Activity at Percent Concentration Tested 1 × 10^−4: 1 × 10^−4 percent concentration; for Activity at Percent Concentration Tested 1 × 10^−6: 1 × 10^−6 percent concentration. The class given is in vivo. The source says: A more detailed description of the assay used herein may be found in Naglehout, T J et al. 2005, “Preservation of Tear Film Integrity and Inhibition of Corneal Injury by Dexamethasone in a Rabbit Model of Lacrimal Gland Inflammation-Induced Dry Eye,” J. Ocular Pharm. Ther., 21:2. 139-148, the disclosure of which is hereby incorporated by reference as if written herein in its entirety.
Rabbits (n=4/group) were randomized into treatment groups and dosed topically BID with maxidex vehicle or test drug beginning one day prior to initiation of dry eye. Each rabbit received bilateral lacrimal gland injections of saline or ConA (300 μg/30 μl) and topical ocular dosing was continued BID throughout the study.
Desiccation was initiated 1-2 hours following lacrimal gland injection by placing conscious rabbits in the environmental chamber (10-15% humidity/72° F.). Following 72 consecutive hours of exposure to this dry environment, the animals were anesthetized and sutures were placed in each upper and lower eyelid and lifted to form a corneal/conjunctival cup. Methylene blue dye (1 mL, 1% in dH2O) was added to the cup for three minutes and the excess removed by washing with 200 mL BSS®. The contralateral eye was then stained using the same procedure. Rabbits were euthanized immediately following the staining procedure and the eyes were excised. The corneas were isolated with a trephine and the 9.5-mm punch of the cornea was placed in 2 mL acetone/saturated sodium sulfate (7:3, vol./vol.). Absorbance of the extracted dye was determined at 660 nm.
TBUT was quantified in a separate group of treated animals. TBUT was determined by instilling 5 μL sodium fluorescein into the cul de sac and manually blinking the lids to distribute the fluorescein within the tear film. Under slit lamp observation, the eye was held open and the time whereby one or more black spots or streaks appeared in the precorneal tear film was recorded. The rabbits were euthanized 3 days following ConA injection.

T1 sequence (Q07343 330-659 limits assumed, species assumed): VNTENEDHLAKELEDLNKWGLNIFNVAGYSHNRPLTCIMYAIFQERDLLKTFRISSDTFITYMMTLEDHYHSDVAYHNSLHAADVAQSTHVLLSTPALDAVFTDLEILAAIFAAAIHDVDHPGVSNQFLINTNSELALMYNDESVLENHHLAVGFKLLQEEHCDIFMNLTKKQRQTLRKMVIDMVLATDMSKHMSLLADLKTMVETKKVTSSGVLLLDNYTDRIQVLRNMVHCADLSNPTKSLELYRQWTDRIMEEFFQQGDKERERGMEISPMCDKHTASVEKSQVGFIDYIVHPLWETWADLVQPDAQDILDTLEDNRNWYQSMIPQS

By IC50 is commonly meant the concentration at which inhibition is half-maximal. A higher IC50 goes with lower potency. The molecule `COc1ccc2c(Nc3c(C)cncc3C)cc(=O)[nH]c2c1OCC(C)C` [Example 12, 4-(3,5-Dimethylpyridin-4-ylamino)-8-isobutoxy-7-methoxyquinolin-2(1H)-one] gave an IC50 against PDE4B of at most 1000 nM.
Same read-out and setting: for `COc1ccc2c(Oc3c(Cl)cncc3Cl)cc(=O)[nH]c2c1OC1CCCC1` [Example 2, 8-(Cyclopentyloxy)-4-(3,5-dichloropyridin-4-yloxy)-7-methoxyquinolin-2(1H)-one] the value was at most 1000 nM.
Still for that read-out and setting: under `COc1ccc2c(Nc3c(Cl)cncc3Cl)cc(=O)n(CCN(C)C)c2c1OC1CCCC1` [Example 10, 8-(Cyclopentyloxy)-4-(3,5-dichloropyridin-4-ylamino)-1-(2-(dimethylamino)ethyl)-7-methoxyquinolin-2(1H)-one] stands at most 1000 nM; under `COc1ccc2c(Nc3c(Cl)cncc3Cl)cc(=O)[nH]c2c1OCCCCN(C)C` [Example 13, 4-(3,5-Dichloropyridin-4-ylamino)-8-(4-(dimethylamino)butoxy) -7-methoxyquinolin-2(1H)-one], at most 1000 nM.
Same read-out and setting: for `COc1ccc2c(Nc3c(Cl)cncc3Cl)cc(=O)n(CCO)c2c1OC1CCCC1` [Example 9, 8-(Cyclopentyloxy)-4-(3,5-dichloropyridin-4-ylamino)-1-(2-hydroxyethyl)-7-methoxyquinolin-2(1H)-one] the value was at most 1000 nM; for `COc1ccc2c(Nc3c(Cl)cncc3Cl)cc(=O)[nH]c2c1OCCCCCN(C)C` [Example 14, 4-(3,5-Dichloropyridin-4-ylamino)-8-(5-(dimethylamino)pentyloxy)-7-methoxyquinolin-2(1H)-one], at most 1000 nM.
For `COc1ccc2c(Nc3c(Cl)cncc3Cl)c(Br)c(=O)n(Br)c2c1OC1CCCC1` [Example 6, 1,3-Dibromo-8-(cyclopentyloxy)-4-(3,5-dichloropyridin-4-ylamino)-7-methoxyquinolin-2(1H)-one], at PDE4B, the half-maximal inhibitory concentration (IC50) is at most 1000 nM.
Still for that read-out and setting: for `COc1ccc2c(Nc3c(Cl)cncc3Cl)cc(=O)[nH]c2c1OCC1CC1` [Example 3, 8-(Cyclopropylmethoxy)-4-(3,5-dichloropyridin-4-ylamino)-7-methoxyquinolin-2(1H)-one] the value was at most 1000 nM; for `COc1ccc2c(Nc3c(Cl)cncc3Cl)c(Br)c(=O)[nH]c2c1OC1CCCC1` [Example 7, 3-Bromo-8-(cyclopentyloxy)-4-(3,5-dichloropyridin-4-ylamino)-7-methoxyquinolin-2(1H)-one], at most 1000 nM.
In turn, `COc1ccc2c(Nc3c(C)cncc3C)cc(=O)[nH]c2c1OCC1CC1` [Example 8, 8-(Cyclopropylmethoxy)-4-(3,5-dimethylpyridin-4-ylamino)-7-methoxyquinolin-2(1H)-one] displayed an IC50 at PDE4B of at most 1000 nM. Besides, in test [1], the “Activity at Percent Concentration Tested 1 × 10^−2” value was “Inactive”, the “Activity at Percent Concentration Tested 1 × 10^−4” value is given as “Inactive” and the “Activity at Percent Concentration Tested 1 × 10^−6” value is “Inactive”.
The molecule `COc1ccc2c(Nc3c(Cl)cncc3Cl)cc(=O)[nH]c2c1OC1CCCC1` [Example 1, 8-(Cyclopentyloxy)-4-(3,5-dichloropyridin-4-ylamino)-7-methoxyquinolin-2(1H)-one] yielded a concentration for half-maximal inhibition (IC50) against PDE4B of at most 1000 nM. Besides, the “Activity at Percent Concentration Tested 1” value in test [1] (1 percent concentration) is given as “Inactive”. The “Activity at Percent Concentration Tested 1 × 10^−1” value in test [1] (1 × 10^−1 percent concentration) is “Inactive”. In addition, the “Activity at Percent Concentration Tested 1 × 10^−2” value in test [1] was “Inactive”.
Regarding `COc1ccc2c(Nc3c(C)cncc3C)cc(=O)[nH]c2c1OC1CCCC1` [Example 5, 8-(Cyclopentyloxy)-4-(3,5-dimethylpyridin-4-ylamino)-7-methoxyquinolin-2(1H)-one], the IC50 on PDE4B is at most 1000 nM. Moreover, in test [1], the “Activity at Percent Concentration Tested 1 × 10^−2” value is reported as “Inactive”, the “Activity at Percent Concentration Tested 1 × 10^−4” value was “Inactive” and the “Activity at Percent Concentration Tested 1 × 10^−6” value was “Inactive”.
The molecule `COc1ccc2c(Nc3c(Cl)cncc3Cl)cc(=O)[nH]c2c1OCCCCCC(=O)O` [Example 11, 6-(4-(3,5-Dichloropyridin-4-ylamino)-7-methoxy-2-oxo-1,2-dihydroquinolin-8-yloxy)hexanoic acid] returned a concentration for half-maximal inhibition (IC50) against PDE4B of at most 1000 nM.
Still for that read-out and setting: under `COc1ccc2c(Nc3c(Cl)cncc3Cl)cc(=O)n(C)c2c1OC1CCCC1` [Example 4, 8-(Cyclopentyloxy)-4-(3,5-dichloropyridin-4-ylamino)-7-methoxy-1-methylquinolin-2(1H)-one] stands at most 1000 nM.
